Data: PubChem BioAssay (NCI)
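48-hour exposure; five concentrations; linearly interpolated endpoints. Here, GI50 denotes the concentration required for 50% inhibition of growth. TGI: total growth inhibition.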

What was measured:
Assay in all cases: NCI tumour cell line growth inhibition, 48 h
SW-620 colon = system: SW-620 colon
SN12C renal = system: SN12C renal
SK-MEL-2 melanoma = system: SK-MEL-2 melanoma
NCI-H23 lung = system: NCI-H23 lung
SNB-19 CNS = system: SNB-19 CNS
NCI-H226 lung = system: NCI-H226 lung
SNB-75 CNS = system: SNB-75 CNS
HCT-116 colon = system: HCT-116 colon
HCT-15 colon = system: HCT-15 colon
PC-3 prostate = system: PC-3 prostate

SMILES | TGI (SW-620 colon) [µM] | TGI (SN12C renal) [µM] | TGI (SK-MEL-2 melanoma) [µM] | TGI (NCI-H23 lung) [µM] | TGI (SNB-19 CNS) [µM] | TGI (NCI-H226 lung) [µM] | TGI (SNB-75 CNS) [µM] | TGI (HCT-116 colon) [µM] | TGI (HCT-15 colon) [µM] | GI50 (SW-620 colon) [µM] | GI50 (SN12C renal) [µM] | GI50 (SK-MEL-2 melanoma) [µM] | GI50 (NCI-H23 lung) [µM] | GI50 (SNB-19 CNS) [µM] | GI50 (PC-3 prostate) [µM] | TGI (PC-3 prostate) [µM] | GI50 (HCT-15 colon) [µM] | GI50 (HCT-116 colon) [µM] | GI50 (NCI-H226 lung) [µM] | GI50 (SNB-75 CNS) [µM]
N#Cc1cccc(C2SCc3nc4ccccc4n32)c1 (stereo not given) | > 100 | > 100 | > 100 | > 100 | > 100 | 96.8 | – | – | – | – | – | – | – | – | – | – | – | – | – | –
Cc1cc(Br)ccc1N=NC1C(=O)ON=C1c1ccccc1 (stereo not given) | > 100 | > 100 | > 100 | > 100 | > 100 | > 100 | > 100 | > 100 | – | – | – | – | – | – | – | – | – | – | – | –
COc1cc(Br)c(C2OCCCO2)cc1OCc1ccccc1 | > 100 | > 100 | > 100 | > 100 | > 100 | > 100 | > 100 | > 100 | > 100 | – | – | – | – | – | – | – | – | – | – | –
CCn1c(O)c(C(=O)Nc2cccs2)c(=O)n(CC)c1=S | 56.2 | 70.8 | 32.8 | 30.5 | 48 | 56.8 | 33.4 | 37.3 | 41.7 | – | – | – | – | – | – | – | – | – | – | –
CCN(CC)CCCC(C)Nc1ccnc2cc(OC)ccc12 (stereo not given) | 58.2 | 75.1 | 52.9 | 96.3 | 53.3 | 46.6 | – | 46 | > 100 | 23.7 | 29.7 | 24.8 | 31.6 | 22.4 | 5.77 | 21.8 | 37.5 | 29.2 | 22.2 | –
CC(C)CC(=O)O[C@H]1C(=O)O[C@@H]2C[C@H]3[C@H](C)C(=O)C(O[C@@H]4O[C@H](CO)[C@@H](O)[C@H](O)[C@H]4O)=C[C@]3(C)[C@H]3[C@@H](O)[C@H](O)[C@]4(C(=O)O)OC[C@]32[C@@H]14 | > 100 | > 100 | – | > 100 | > 100 | 92 | > 100 | > 100 | > 100 | > 100 | > 100 | – | – | 31.9 | – | > 100 | > 100 | 32.8 | 29.2 | –
O=C(c1ccccc1)N1CCc2c([nH]c3ccccc23)C1 | > 100 | > 100 | 71.2 | > 100 | > 100 | > 100 | > 100 | > 100 | > 100 | – | – | – | – | – | – | – | – | – | – | –
C/C(=N\NC(N)=S)c1ccc(Oc2ccccc2)cc1 | 53.9 | 38.4 | – | 83.3 | 84.5 | – | 33.6 | 22.6 | 22.5 | – | – | – | – | – | – | – | – | – | – | –
BrC(/C=N/Nc1nnc(-c2ccccc2)c(-c2ccccc2)n1)C(Br)c1ccccc1 (stereo not given) | > 100 | > 100 | 73.2 | > 100 | > 100 | 70.4 | 78.6 | – | > 100 | – | – | – | – | – | – | – | – | – | – | –
O=c1[nH]c(-c2ccncc2)nc2sc3c(c12)CCCCCC3 | > 100 | > 100 | > 100 | > 100 | – | > 100 | > 100 | – | > 100 | > 100 | > 100 | > 100 | > 100 | – | > 100 | > 100 | > 100 | – | > 100 | 2.71
O=c1ccn([C@@H]2C[C@H](CO)CS(=O)C2)c(=O)[nH]1 (stereo not given in full) | > 100 | > 100 | > 100 | > 100 | > 100 | > 100 | > 100 | > 100 | > 100 | – | – | – | – | – | – | – | – | – | – | –
Fc1cnccc1-c1nc2ccc3[nH]ncc3c2c2c1CCCC2 | – | > 100 | – | 59.9 | > 100 | > 100 | 5.54 | 5.03 | > 100 | – | 2.14 | – | 2.22 | 2.89 | 2.13 | > 100 | 0.844 | 0.489 | 2.71 | 1.41
CCOc1ccc(/C=C/C(=O)c2sc(NNC(C)=O)nc2C)cc1 | > 100 | > 100 | > 100 | > 100 | > 100 | – | > 100 | – | > 100 | – | – | – | – | – | – | – | – | – | – | –
CCC[CH2][Sn]1([CH2]CCC)[O]C(=O)c2cccnc2[S]1 | 4.31 | 13.2 | 4.63 | 5.41 | 19.5 | 29.1 | 7.82 | 17.9 | 4.98 | 1.88 | 3.8 | 2.11 | 2.13 | 6.88 | – | – | 2.21 | 5.56 | 15.3 | 2.54
COc1ccc(Cc2c3cc(OC)c(OC)cc3cc[n+]2C)cc1 | > 100 | > 28.3 | > 45.8 | > 40.2 | > 31.4 | > 51.9 | 34.6 | > 24.8 | > 52.8 | – | – | – | – | – | – | – | – | – | – | –
C#CC[C@]12CC(=O)CC[C@H]1CC1(C2)OCCO1 | > 100 | > 100 | > 100 | – | > 100 | > 100 | > 100 | > 100 | > 100 | – | – | – | – | – | – | – | – | – | – | –
Cc1nn(-c2ccccc2)c2c1[C@@H](C)[C@H]1CC3(CC4(C)C[C@@H]3C1(C)c1c(C)nn(-c3ccccc3)c1N4C)N2C (stereo not given in full) | – | > 100 | > 100 | > 100 | > 100 | > 100 | – | – | – | – | > 100 | > 100 | > 100 | > 100 | 0.591 | > 100 | – | – | > 100 | –
COc1cc(CC2c3cc(OC)c(OC)cc3CCN2C)c(C(=O)O)cc1OC (stereo not given) | > 100 | > 100 | > 100 | > 100 | > 100 | > 100 | > 100 | > 100 | – | – | – | – | – | – | – | – | – | – | – | –
CC[C@@]12CC(C(=O)OC)=C3Nc4ccccc4[C@@]34CCN(C[C@H]3O[C@H]31)[C@@H]24 | > 100 | > 100 | > 100 | > 100 | 30.7 | – | 64.9 | > 100 | > 100 | 35.9 | > 100 | 25.1 | 60.7 | 16.1 | 52.7 | > 100 | 33.5 | 43.8 | – | 14.8
